# Legend:
# Assay type in all cases: cell-based
# HL-60(TB) = assay: NCI 60 five-dose screen HL-60(TB); details: Homo sapiens
# K-562 = assay: NCI 60 five-dose screen K-562; details: Homo sapiens
# A549/ATCC = assay: NCI 60 five-dose screen A549/ATCC; details: Homo sapiens
# HOP-62 = assay: NCI 60 five-dose screen HOP-62; details: Homo sapiens
# HOP-92 = assay: NCI 60 five-dose screen HOP-92; details: Homo sapiens
# NCI-H226 = assay: NCI 60 five-dose screen NCI-H226; details: Homo sapiens
# NCI-H322M = assay: NCI 60 five-dose screen NCI-H322M; details: Homo sapiens
# COLO 205 = assay: NCI 60 five-dose screen COLO 205; details: Homo sapiens
# HCC-2998 = assay: NCI 60 five-dose screen HCC-2998; details: Homo sapiens
# KM12 = assay: NCI 60 five-dose screen KM12; details: Homo sapiens
# SF-268 = assay: NCI 60 five-dose screen SF-268; details: Homo sapiens
# SNB-75 = assay: NCI 60 five-dose screen SNB-75; details: Homo sapiens
# U251 = assay: NCI 60 five-dose screen U251; details: Homo sapiens
# LOX IMVI = assay: NCI 60 five-dose screen LOX IMVI; details: Homo sapiens
# SK-MEL-28 = assay: NCI 60 five-dose screen SK-MEL-28; details: Homo sapiens
# SK-MEL-5 = assay: NCI 60 five-dose screen SK-MEL-5; details: Homo sapiens
# UACC-257 = assay: NCI 60 five-dose screen UACC-257; details: Homo sapiens
# OVCAR-3 = assay: NCI 60 five-dose screen OVCAR-3; details: Homo sapiens
# OVCAR-5 = assay: NCI 60 five-dose screen OVCAR-5; details: Homo sapiens
# OVCAR-8 = assay: NCI 60 five-dose screen OVCAR-8; details: Homo sapiens
# NCI/ADR-RES = assay: NCI 60 five-dose screen NCI/ADR-RES; details: Homo sapiens
# A498 = assay: NCI 60 five-dose screen A498; details: Homo sapiens
# TK-10 = assay: NCI 60 five-dose screen TK-10; details: Homo sapiens
# UO-31 = assay: NCI 60 five-dose screen UO-31; details: Homo sapiens
# DU-145 = assay: NCI 60 five-dose screen DU-145; details: Homo sapiens
# HS 578T = assay: NCI 60 five-dose screen HS 578T; details: Homo sapiens
# T-47D = assay: NCI 60 five-dose screen T-47D; details: Homo sapiens, T47D
# MDA-MB-468 = assay: NCI 60 five-dose screen MDA-MB-468; details: Homo sapiens
# [1] = read-out: LC50 (the source's name) (converted)
# [2] = read-out: LC50 (the source's name)
compound,measurement,setting,value
Fc1ccc(N2CC(Cn3c(C(F)(F)F)cc4c(Cl)ncnc43)C2)c(F)c1 [NUCC-0226695],GI50,HL-60(TB),2.24 µM
same,IC50,HL-60(TB),3.89 µM
same,IC (TGI),HL-60(TB),6.31 µM
same,CC50,HL-60(TB); [1],≥ 100 µM
same,GI50,K-562; K562,2.34 µM
same,IC50,K-562; K562,3.09 µM
same,IC (TGI),K-562; K562,7.08 µM
same,CC50,"K-562; K562, read-out: LC50 (the source's name)",≥ 100 µM
same,GI50,A549/ATCC,17.4 µM
same,IC50,A549/ATCC,29.5 µM
same,IC (TGI),A549/ATCC,35.5 µM
same,CC50,A549/ATCC; [1],74.1 µM
same,GI50,HOP-62,17 µM
same,IC50,HOP-62,32.4 µM
same,IC (TGI),HOP-62,33.9 µM
same,CC50,HOP-62; [1],66.1 µM
same,GI50,HOP-92,11 µM
same,IC50,HOP-92,26.9 µM
same,IC (TGI),HOP-92,25.7 µM
same,CC50,HOP-92; [1],58.9 µM
same,GI50,NCI-H226,14.1 µM
same,IC50,NCI-H226,33.9 µM
same,IC (TGI),NCI-H226,30.9 µM
same,CC50,NCI-H226; [1],69.2 µM
same,GI50,NCI-H322M,10.7 µM
same,IC50,NCI-H322M,20.4 µM
same,IC (TGI),NCI-H322M,22.9 µM
same,CC50,NCI-H322M; [1],47.9 µM
same,GI50,COLO 205,15.1 µM
same,IC50,COLO 205,26.9 µM
same,IC (TGI),COLO 205,32.4 µM
same,CC50,COLO 205; [1],70.8 µM
same,GI50,HCC-2998,1.95 µM
same,IC50,HCC-2998,3.47 µM
same,IC (TGI),HCC-2998,3.47 µM
same,CC50,HCC-2998; [1],6.17 µM
same,GI50,KM12,16.2 µM
same,IC50,KM12,28.2 µM
same,IC (TGI),KM12,30.9 µM
same,CC50,KM12; [1],60.3 µM
same,GI50,SF-268,3.16 µM
same,IC50,SF-268,5.62 µM
same,IC (TGI),SF-268,11.2 µM
same,CC50,SF-268; [1],47.9 µM
same,GI50,SNB-75,12 µM
same,IC50,SNB-75,25.1 µM
same,IC (TGI),SNB-75,24.5 µM
same,CC50,SNB-75; [1],51.3 µM
same,GI50,U251; U-251,1.91 µM
same,IC50,U251; U-251,3.24 µM
same,IC (TGI),U251; U-251,3.8 µM
same,CC50,"U251; U-251, read-out: LC50 (the source's name) (converted)",7.76 µM
same,GI50,LOX IMVI,1.62 µM
same,IC50,LOX IMVI,2.82 µM
same,IC (TGI),LOX IMVI,3.02 µM
same,CC50,LOX IMVI; [1],5.5 µM
same,GI50,SK-MEL-28,2.09 µM
same,IC50,SK-MEL-28,3.63 µM
same,IC (TGI),SK-MEL-28,4.9 µM
same,CC50,SK-MEL-28; [1],16.6 µM
same,GI50,SK-MEL-5,11 µM
same,IC50,SK-MEL-5,18.2 µM
same,IC (TGI),SK-MEL-5,22.9 µM
same,CC50,SK-MEL-5; [1],47.9 µM
same,GI50,UACC-257,3.09 µM
same,IC50,UACC-257,6.46 µM
same,IC (TGI),UACC-257,12 µM
same,CC50,UACC-257; [1],42.7 µM
same,GI50,OVCAR-3,2.57 µM
same,IC50,OVCAR-3,4.9 µM
same,IC (TGI),OVCAR-3,6.46 µM
same,CC50,OVCAR-3; [1],22.9 µM
same,GI50,OVCAR-5,17.8 µM
same,IC50,OVCAR-5,32.4 µM
same,IC (TGI),OVCAR-5,37.2 µM
same,CC50,OVCAR-5; [1],77.6 µM
same,GI50,OVCAR-8,2.14 µM
same,IC50,OVCAR-8,3.47 µM
same,IC (TGI),OVCAR-8,5.01 µM
same,CC50,OVCAR-8; [1],19.1 µM
same,GI50,NCI/ADR-RES,10.2 µM
same,IC50,NCI/ADR-RES,18.2 µM
same,IC (TGI),NCI/ADR-RES,26.3 µM
same,CC50,NCI/ADR-RES; [1],69.2 µM
same,GI50,A498,23.4 µM
same,IC50,A498,100 µM
same,IC (TGI),A498,74.1 µM
same,CC50,A498; [1],≥ 100 µM
same,GI50,TK-10,19.1 µM
same,IC50,TK-10,42.7 µM
same,IC (TGI),TK-10,51.3 µM
same,CC50,TK-10; [1],≥ 100 µM
same,GI50,UO-31,2.69 µM
same,IC50,UO-31,5.75 µM
same,IC (TGI),UO-31,10.7 µM
same,CC50,UO-31; [1],33.1 µM
same,GI50,DU-145,12.6 µM
same,IC50,DU-145,21.9 µM
same,IC (TGI),DU-145,25.7 µM
same,CC50,DU-145; [1],52.5 µM
same,GI50,HS 578T,7.08 µM
same,IC50,HS 578T,77.6 µM
same,IC (TGI),HS 578T,41.7 µM
same,CC50,HS 578T; [2],≥ 100 µM
same,GI50,T-47D,13.8 µM
same,IC50,T-47D,43.7 µM
same,IC (TGI),T-47D,67.6 µM
same,CC50,T-47D; [2],≥ 100 µM
same,GI50,MDA-MB-468,1.62 µM
same,IC50,MDA-MB-468,3.39 µM
same,IC (TGI),MDA-MB-468,3.24 µM
same,CC50,MDA-MB-468; [1],6.31 µM
